Consider four compounds from patent US10434197B2, “Tetrazine-trans-cyclooctene ligation for the rapid construction of radionuclide labeled probes” (University of Delaware, priority 2010, dated 2019).

One data set concerns U87MG tumor. As to the kind of experiment: in vivo. Also on record: species or system mice. To be noted: mouse. How it is done: (§1) Animal procedures were performed according to a protocol approved by the University of Southern California Institutional Animal Care and Use Committee. For static microPET scans, mice bearing U87MG xenografts were injected with 3.7 MBq (100 μCi) of ^18F-41 via the tail vein (n=3 for each group). At 0.5, 1, and 2 h post injection (p.i.), the mice were anesthetized with isoflurane (5% for induction and 2% for maintenance in 100% O2) using a knock-down box. With the help of a laser beam attached to the scanner, the mice were placed in the prone position and near the center of the field of view of the scanner. The 3-min static scans were then obtained. Images were reconstructed using a 2-dimensional ordered-subsets expectation maximization (OSEM) algorithm. No background correction was performed. Regions of interest (ROIs; 5 pixels for coronal and transaxial slices) were drawn over the tumor on decay-corrected whole-body coronal images. The maximum counts per pixel per minute were obtained from the ROI and converted to counts per milliliter per minute using a calibration constant. With the assumption of a tissue density of 1 g/mL, the ROIs were converted to counts per gram per min. Image ROI-derived % ID/g values were determined by dividing counts per gram per minute with injected dose. No attenuation correction was performed. Similarly, ^18F-43 was injected into healthy nude mice for microPET study.
(§2) Representative coronal microPET images of U87MG tumor-bearing mice (n=3/group) were obtained at different times after intravenous injection of about 3.7 MBq (100 μCi) of ^18F-41. The tumors after injection of the radiotracers were all clearly visible with good contrast to contralateral background at all time points measured. […] Quantification of tumor and major organ activity accumulation in the microPET scans was achieved by measuring regions of interest (ROIs) encompassing the entire organ on the coronal images. Tumor and major organ uptake of ^18F-41 is depicted in FIG. 3A. The tumor uptake of ^18F-41 in U87MG tumor was 1.98±0.33, 1.80±0.15, and 1.27±0.33% ID/g at 0.5, 1, and 2 h p.i., respectively. The uptake of the ^18F-41 decreased rapidly with time in the muscle, affording better image contrast at later time points after injection (2 h).

A further data set can be described thus: in vivo. Further details: species or system mice. To be noted: mouse, iv, 3.7 MBq, total radioactivity. How it is done:
as §1, §2

Data set [1] can be described thus: Stability and isomerization of Diels-Alder conjugate 10 in water, CD3CN/H2O, PBS. Particulars: for rearrangement to ^19F-11, conversion: CD3CN/H2O. The format is physicochemical.
Data set [2] in a line: Chemical stability of 16 (water, amine, thiol). The format is physicochemical. To be noted: 24 hours.
The nature of data set [3]: Stability of 16 in human serum. The format is in vitro ADME. To be noted: 24 hours.
Data set [4] can be described thus: Rate of Diels-Alder reaction with 3,6-di(2-pyridyl)-s-tetrazine (1a). The format is physicochemical. The text has this: The inventors have previously described tetrazine-trans-cyclooctene ligation (‘ITCO ligation’) as a method of bioconjugation that proceeds with fast reaction rates without need for catalysis (M. L. Blackman, M. Royzen and J. M. Fox, J. Am. Chem. Soc. 2008, 130, 13518-13519) trans-Cyclooctene derivatives are readily prepared from cis-cyclooctenes using a photochemical flow-reaction that the inventors developed (M. Royzen, G. P. A. Yap and J. M. Fox, J. Am. Chem. Soc. 2008, 130, 3760-3761). […] Thus, the reaction between trans-cyclooctene and 1a proceeds with a rapid rate (k2˜2000 M^−1 s^−1 in 9:1 MeOH:water), and is successful in cell media and cell lysate.
The inventors also used a photochemical flow reactor (M. Royzen, G. Yap, and J. Fox, J. Am. Chem. Soc. 2008, 130 (12), 3760) to synthesize 16, an analog of 7 with a functionalizable group. The rate of the reaction of compound 16 with 3,6-di(2-pyridyl)-s-tetrazine (1a) in methanol was k2=22000 M^−1s^−1, […] than the reaction of 1a with trans-cyclooctene in the same solvent. […] Compound 16 can be readily converted into carbamate derivatives, and compound 16 can be selectively conjugated to the protein thioredoxin using the conjugation of maleimide 26 (vide infra) to a cysteine residue, and that conjugate can in turn can take part in tetrazine ligation analogous to that shown below for compound 16.

The conditions of data set [5]: 9:1 MeOH:water; cited from earlier work.

The structures appear in SMILES notation. Like-named read-outs stand apart in the source and are kept apart here.

Take `N=C(N)NCCC[C@@H]1NC(=O)[C@H](CSC2CC(=O)N(CCNC(=O)CCCC(=O)Nc3ccc(C4=NN=C(c5ccccn5)C5CCCCC(OCCF)CC45)nc3)C2=O)NC(=O)[C@@H](Cc2ccc(O)cc2)NC(=O)[C@H](CC(=O)O)NC(=O)CNC1=O` (stereo partly drawn) [^18F-41]: the excretion route entry in the data set on U87MG tumor is “mainly excreted through the renal system”. Besides, in “in vivo”, the tissue uptake (usually the percentage of the injected dose found per gram of tissue) at 0.5 h was 1.98 ± 0.33 %ID/g, the tissue uptake at 1 h is 1.8 ± 0.15 %ID/g and the tissue uptake at 2 h was 1.27 ± 0.33 %ID/g.

Regarding `FCCO[C@@H]1CCC[C@@H]2C(c3ccccn3)=NN=C(c3ccccn3)[C@H]2CC1` [compound 10, 7-(2-fluoroethoxy)-1,4-di(pyridin-2-yl)-4a,5,6,7,8,9,10,10a-octahydrocycloocta[d]pyridazine], the stability in water result in data set [1] is “stable”. The “rearrangement to ^19F-11, conversion” value in data set [1] (after 4 hours) was 11%; in data set [1] (after 48 hours) it was over 95%.

For `OC[C@@H]1[C@H]2CC/C=C/CC[C@@H]12` [compound 16], the stability result in data set [2] (5 mM ethanethiol in MeOH), in data set [2] (5 mM n-butylamine in MeOH), in data set [2] (water) and in data set [3] was “no degradation” each time. The “rate of reaction with 1a” value in data set [4] (aqueous solvent systems, UV-vis spectroscopy) is reported as “too fast to measure”. Further, in data set [4] (methanol), the “k2, reaction with 1a” value was 22000 M⁻¹ s⁻¹. Moreover, the “rate relative to reaction of 1a with trans-cyclooctene” value in data set [4] (same solvent (methanol)) was found to be 18 times faster.

As for `C1=C/CCCCCC/1` [trans-cyclooctene], the “k2, reaction with 1a” value in data set [5] is about 2000 M⁻¹ s⁻¹.
